Key:
GSK-3β (AA 1-420) = molecular target: T1, GSK-3β (AA 1-420) (Homo sapiens, UniProt P49841); assay: Ki determination for the inhibition of GSK-3 (coupled enzyme system); type: biochemical; details: 20 μM ATP, 300 μM peptide, 20 nM GSK-3β, 30° C
T1 construct: GSK-3β (AA 1-420)
How it was run: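 Ki values come from reaction rates over 10 min at 30 °C as a function of inhibitor concentration (12-point titration, 0.002–30 μM, 10 min preincubation). GSK-3β (AA 1-420, 20 nM) phosphorylated 300 μM primed peptide with 20 μM ATP; ADP formation followed by coupled NADH oxidation, pH 7.5.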

Aurora-2 = molecular target: T2, Aurora-2 (Homo sapiens, UniProt O14965); assay: Ki determination for the inhibition of Aurora-2 (coupled enzyme assay); type: biochemical; details: 70 nM Aurora-2, peptide LRRASLG, 30° C
T2 sequence (O14965 1-403): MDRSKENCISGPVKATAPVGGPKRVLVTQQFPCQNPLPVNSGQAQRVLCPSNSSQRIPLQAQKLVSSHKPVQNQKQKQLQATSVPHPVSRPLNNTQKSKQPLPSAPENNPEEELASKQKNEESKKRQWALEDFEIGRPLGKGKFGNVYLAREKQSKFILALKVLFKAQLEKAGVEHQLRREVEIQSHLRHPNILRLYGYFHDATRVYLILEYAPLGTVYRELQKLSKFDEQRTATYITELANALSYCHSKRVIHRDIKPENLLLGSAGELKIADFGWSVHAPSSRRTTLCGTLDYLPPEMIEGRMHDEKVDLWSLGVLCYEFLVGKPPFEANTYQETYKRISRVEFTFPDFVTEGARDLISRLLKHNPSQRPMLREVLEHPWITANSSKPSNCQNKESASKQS
Description: Compounds were screened in the following manner for their ability to inhibit Aurora-2 using a standard coupled enzyme assay (Fox et al (1998) Protein Sci 7, 2249).
To an assay stock buffer solution containing 0.1M HEPES 7.5, 10 mM MgCl2, 1 mM DTT, 25 mM NaCl, 2.5 mM phosphoenolpyruvate, […], 30 mg/ml pyruvate kinase, 10 mg/ml lactate dehydrogenase, […], and 800 μM peptide (LRRASLG, American Peptide, Sunnyvale, Calif.) was added a DMSO solution of a compound of the present invention to a final concentration of 30 μM. The resulting mixture was incubated at 30° C. for 10 min. The reaction was initiated by the addition of 10 μL of Aurora-2 stock solution to give a final concentration of 70 nM in the assay. The rates of reaction were obtained by monitoring absorbance at 340 nm over a 5 minute read time at 30° C. using a BioRad Ultramark plate reader (Hercules, Calif.). The Ki values were determined from the rate data as a function of inhibitor concentration.

T1 sequence (P49841 whole entry, the tested form may be a part): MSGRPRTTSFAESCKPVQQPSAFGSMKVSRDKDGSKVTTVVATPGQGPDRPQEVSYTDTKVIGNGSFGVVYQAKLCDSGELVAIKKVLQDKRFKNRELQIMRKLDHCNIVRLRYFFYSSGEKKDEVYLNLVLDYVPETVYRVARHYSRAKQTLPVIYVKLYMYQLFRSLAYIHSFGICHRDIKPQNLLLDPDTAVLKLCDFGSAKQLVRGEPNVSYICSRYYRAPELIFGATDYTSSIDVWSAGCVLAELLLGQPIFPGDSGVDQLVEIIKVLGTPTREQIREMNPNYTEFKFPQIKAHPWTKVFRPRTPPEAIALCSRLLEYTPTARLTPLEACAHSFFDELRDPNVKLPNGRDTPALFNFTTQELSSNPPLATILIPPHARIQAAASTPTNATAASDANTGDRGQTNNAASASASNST

**Q.** What does the source list for Cc1cc(Nc2nc(-c3ccc(F)cc3F)nc3ccccc23)n[nH]1 [II-34, [2-(2,4-Difluorophenyl)-quinazolin-4-yl]-(5-methyl-2H-pyrazol-3-yl)-amine]?
**A.** Ki (GSK-3β (AA 1-420)): < 100 nM; Ki (Aurora-2): < 100 nM

**Q.** For Cc1cc(Nc2nc(C3CCCCC3)nc3ccccc23)[nH]n1 [III-30, (2-Cyclohexyl-quinazolin-4-yl)-(5-methyl-2H-pyrazol-3-yl)-amine], which Ki (GSK-3β (AA 1-420)) is on record?
**A.** < 100 nM

**Q.** And the Ki (Aurora-2)?
**A.** < 100 nM

**Q.** COc1cccc2c(Nc3n[nH]c4c(F)cc(F)cc34)nc(-c3ccccc3C(F)(F)F)nc12 [II-93, (5,7-Difluoro-1H-indazol-3-yl)-[8-methoxy-2-(2-trifluoromethyl-phenyl)-quinazolin-4-yl]-amine] was tested. Which Ki (GSK-3β (AA 1-420)) did it give?
**A.** < 100 nM

**Q.** What about the Ki (Aurora-2) of the same compound?
**A.** 100 to 1000 nM

**Q.** Which results are given for Cc1cc(Nc2nc(-c3cccc(CO)c3)nc3ccccc23)[nH]n1 [III-59, [2-(3-Hydroxymethylphenyl)-quinazolin-4-yl]-(5-methyl-2H-pyrazol-3-yl)-amine]?
**A.** Ki (GSK-3β (AA 1-420)): < 100 nM; Ki (Aurora-2): < 100 nM

**Q.** Which Ki (Aurora-2) does the source give for FC(F)(F)c1ccccc1-c1nc(Nc2cc(C3CC3)[nH]n2)c2ccccc2n1 [II-55, (5-Cyclopropyl-2H-pyrazol-3-yl)-[2-(2-trifluoromethyl-phenyl)-quinazolin-4-yl]-amine] here?
**A.** < 100 nM

**Q.** Which Ki (GSK-3β (AA 1-420)) does the source give for CC(=O)c1cccc(-c2nc(Nc3cc(C)n[nH]3)c3ccccc3n2)c1 [III-57, [2-(3-Acetylphenyl)-quinazolin-4-yl]-(5-methyl-2H-pyrazol-3-yl)-amine] here?
**A.** < 100 nM

**Q.** And the Ki (Aurora-2)?
**A.** < 100 nM

**Q.** For COc1ccccc1-c1nc(Nc2cc(C)[nH]n2)c2ccccc2n1 [II-37, [2-(2-Methoxyphenyl)-quinazolin-4-yl]-(5-methyl-2H-pyrazol-3-yl)-amine], which Ki (Aurora-2) is on record?
**A.** < 100 nM

**Q.** How did the Ki (GSK-3β (AA 1-420)) turn out when Cc1cc(Nc2nc(-c3cc(C(F)(F)F)cc(C(F)(F)F)c3)nc3ccccc23)[nH]n1 [III-58, [2-(3,5-Ditrifluoromethylphenyl)-quinazolin-4-yl]-(5-methyl-2H-pyrazol-3-yl)-amine] was run?
**A.** < 100 nM

**Q.** And the Ki (Aurora-2)?
**A.** 100 to 1000 nM

**Q.** Which Ki (GSK-3β (AA 1-420)) does the source give for O=[N+]([O-])c1ccc2[nH]nc(Nc3nc(-c4ccccc4C(F)(F)F)nc4ccccc34)c2c1 [II-70, (5-Nitro-1H-indazol-3-yl)-[2-(2-trifluoromethyl-phenyl)-quinazolin-4-yl]-amine] here?
**A.** < 100 nM

**Q.** What about the Ki (Aurora-2) of the same compound?
**A.** 100 to 1000 nM

**Q.** For FC(F)(F)c1ccc2c(Nc3nc(-c4ccccc4C(F)(F)F)nc4ccccc34)n[nH]c2c1 [II-69, (6-Trifluoromethyl-1H-indazol-3-yl)-[2-(2-trifluoromethyl-phenyl)-quinazolin-4-yl]-amine], which Ki (GSK-3β (AA 1-420)) is on record?
**A.** < 100 nM

**Q.** And the Ki (Aurora-2)?
**A.** 1000 to 20000 nM

**Q.** For Fc1ccc2[nH]nc(Nc3nc(-c4ccccc4C(F)(F)F)nc4c3CN(Cc3ccccc3)CC4)c2c1 [II-12, (6-Benzyl-2-(2-trifluoromethyl-phenyl)-5,6,7,8-tetrahydro-pyrido[4,3-d]pyrimidin-4-yl)-(5-fluoro-1H-indazol-3-yl)-amine], which Ki (GSK-3β (AA 1-420)) is on record?
**A.** < 100 nM

**Q.** With O=C(NC1CC1)c1cc(Nc2nc(-c3ccccc3)nc3ccccc23)[nH]n1 [III-90, (5-Cyclopropylcarbamoyl-2H-pyrazol-3-yl)-(2-phenyl-quinazolin-4-yl)-amine] as the compound, how does the Ki (GSK-3β (AA 1-420)) read?
**A.** 100 to 1000 nM

**Q.** How did the Ki (GSK-3β (AA 1-420)) turn out when Fc1ccc2[nH]nc(Nc3nc(-c4ccccc4C(F)(F)F)nc4c3CCCC4)c2c1 [II-8, (5-Fluoro-1H-indazol-3-yl)-[2-(2-trifluoromethyl-phenyl)-5,6,7,8-tetrahydroquinazolin-4-yl]-amine] was run?
**A.** < 100 nM

**Q.** With NC(=O)c1c[nH]nc1Nc1nc(-c2ccccc2C(F)(F)F)nc2ccccc12 [II-52, (4-Carbamoyl-2H-pyrazol-3-yl)-[2-(2-trifluoromethylphenyl)-quinazolin-4-yl]-amine] as the compound, how does the Ki (GSK-3β (AA 1-420)) read?
**A.** 1000 to 20000 nM

**Q.** How did the Ki (GSK-3β (AA 1-420)) turn out when Fc1cc(F)c2[nH]nc(Nc3nc(-c4ccccc4C(F)(F)F)nc4ncccc34)c2c1 [II-109, (5,7-Difluoro-1H-indazol-3-yl)-[2-(2-trifluoromethyl-phenyl)-pyrido[2,3-d]pyrimidin-4-yl]-amine] was run?
**A.** < 100 nM

**Q.** How did the Ki (GSK-3β (AA 1-420)) turn out when Clc1ccccc1-c1nc2c(c(Nc3n[nH]c4ccccc34)n1)CCCCC2 [II-2, [2-(2-Chloro-phenyl)-6,7,8,9-tetrahydro-5H-cycloheptapyrimidin-4-yl]-(1H-indazol-3-yl)-amine] was run?
**A.** < 100 nM
